In patent publication US20230041738A1, “1H-PYRAZOLO[4,3-d]PYRIMIDINE COMPOUNDS AS TOLL-LIKE RECEPTOR 7 (TLR7) AGONISTS” (BRISTOL-MYERS SQUIBB COMPANY, priority 2020, published 2023):

Experiments:
[1] = tested on: CD69; experiment: Induction of CD69 in human whole blood (hWB); format: cell-based; conditions: 17 hrs at 37 C, CD69 surface staining, 100% set to 1 uM resiquimod, average where performed multiple times
Protocol: The induction of Type I interferon (IFN) MX-1 genes and the B-cell activation marker CD69 are downstream events that occur upon activation of the TLR7 pathway. The following is a human whole blood assay that measures their induction in response to a TLR7 agonist.
Heparinized human whole blood was harvested from human subjects and treated with test TLR7 agonist compounds at 1 mM. The blood was diluted with RPMI 1640 media and Echo was used to predot 10 nL per well giving a final concentration of 1 uM (10 nL in 10 uL of blood). After mixing on a shaker for 30 sec, the plates were covered and placed in a 37° C. chamber for o/n=17 hrs. Fixing/lysis buffer was prepared (5×→1× in H2O, warm at 37° C.; Cat #BD 558049) and kept the perm buffer (on ice) for later use.
For surface markers staining (CD69): prepared surface Abs: 0.045 ul hCD14-FITC (ThermoFisher Cat #MHCD1401)+0.6 ul hCD19-ef450 (ThermoFisher Cat #48-0198-42)+1.5 ul hCD69-PE (cat #BD555531)+0.855 ul FACS buffer. Added 3 ul/well, spin1000 rpm for 1 min and mixed on shaker for 30 sec, put on ice for 30 mins. Stop stimulation after 30 min with 70 uL of prewarmed 1× fix/lysis buffer and use Feliex mate to resuspend (15 times, change tips for each plate) and incubate at 37C for 10 min.
Centrifuge at 2000 rpm for 5 min aspirate with HCS plate washer, mix on shaker for 30 sec and then wash with 70 uL in dPBS and pelleted 2× s (2000 rpm for 5 min) and 50 ul wash in FACS buffer pelleted 1×s(2000 rpm for 5 min). Mix on shaker for 30 sec. For Intracellular markers staining (MX-1): Add 50 ul of BD Perm buffer III and mix on shaker for 30 sec. Incubate on ice for 30 min (in the dark). Wash with 50 uL of FACS buffer 2× (spin @2300 rpm×5 min after perm) followed by mixing on shaker for 30 sec. Resuspended in 20 ul of FACS buffer containing MX1 antibody ( )(4812)-Alexa 647: Novus Biologicals #NBP2-43704AF647) 20 ul FACS bf+0.8 ul hlgG+0.04 ul MX-1. Spin 1000 rpm for 1 min, mix on shaker for 30se and the samples were incubated at RT in the dark for 45 min followed by washing 2× FACS buffer (spin @2300 rpm×5 min after perm). Resuspend 20 ul (35 uL total per well) of FACS buffer and cover with foil and place in 4° C. to read the following day. Plates were read on iQuePlus. The results were loaded into toolset and IC50 curves are generated in curve master. The y-axis 100% is set to 1 uM of resiquimod.

[2] = biological target: T1, human TLR7 (Homo sapiens, UniProt Q9NYK1); experiment: Human TLR7 agonist activity assay (hTLR7 reporter, HEK-Blue TLR7 cells, SEAP); format: cell-based; conditions: HEK-Blue TLR7 cells with SEAP reporter, 18 h treatment; average where assay performed multiple times
T1 construct: host or cells: HEK-Blue TLR7 cells (engineered human embryonic kidney cells)
T1 sequence (Q9NYK1 27-1049): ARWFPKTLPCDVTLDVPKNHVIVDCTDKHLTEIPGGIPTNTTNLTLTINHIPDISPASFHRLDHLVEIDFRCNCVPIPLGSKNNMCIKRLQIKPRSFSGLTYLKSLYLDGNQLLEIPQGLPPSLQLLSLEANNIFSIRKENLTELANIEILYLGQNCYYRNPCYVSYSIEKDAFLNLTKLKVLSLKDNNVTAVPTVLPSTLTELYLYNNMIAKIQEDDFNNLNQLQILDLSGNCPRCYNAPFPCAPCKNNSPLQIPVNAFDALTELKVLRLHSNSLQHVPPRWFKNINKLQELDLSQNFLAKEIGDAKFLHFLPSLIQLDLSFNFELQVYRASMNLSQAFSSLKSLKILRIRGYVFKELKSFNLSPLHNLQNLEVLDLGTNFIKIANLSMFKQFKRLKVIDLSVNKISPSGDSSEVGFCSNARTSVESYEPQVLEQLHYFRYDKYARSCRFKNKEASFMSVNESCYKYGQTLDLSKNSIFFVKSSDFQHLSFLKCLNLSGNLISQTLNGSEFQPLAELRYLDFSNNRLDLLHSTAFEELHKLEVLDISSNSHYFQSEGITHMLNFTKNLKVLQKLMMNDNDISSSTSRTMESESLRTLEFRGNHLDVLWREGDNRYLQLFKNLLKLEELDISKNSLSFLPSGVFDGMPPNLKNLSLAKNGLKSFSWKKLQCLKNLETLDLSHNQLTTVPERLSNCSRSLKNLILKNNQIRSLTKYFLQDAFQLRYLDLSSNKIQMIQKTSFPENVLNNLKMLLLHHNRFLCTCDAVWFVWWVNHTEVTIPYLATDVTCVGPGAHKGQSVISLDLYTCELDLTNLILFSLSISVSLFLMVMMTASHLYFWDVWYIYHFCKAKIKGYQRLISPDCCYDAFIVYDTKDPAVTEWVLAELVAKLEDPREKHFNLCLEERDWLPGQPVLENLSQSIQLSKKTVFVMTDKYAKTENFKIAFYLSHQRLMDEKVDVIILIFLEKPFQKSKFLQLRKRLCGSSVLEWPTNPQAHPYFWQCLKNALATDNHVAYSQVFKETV
Protocol: This procedure describes a method for assaying human TLR7 (hTLR7) agonist activity of the compounds disclosed in this specification.
HEK-Blue™ TLR7 cells were added to each well of a 384-well tissue-culture plate (15,000 cells per well) and incubated 16-18 h at 37° C., 5% CO2. Compounds (100 nl) were dispensed into wells containing the HEK-Blue™ TLR cells and the treated cells were incubated at 37° C., 5% CO2. After 18 h treatment ten microliters of freshly-prepared Quanti-Blue™ reagent (Invivogen) was added to each well, incubated for 30 min (37° C., 5% CO2) and SEAP levels measured using an Envision plate reader (OD=620 nm). The half maximal effective concentration values (EC50; compound concentration which induced a response halfway between the assay baseline and maximum) were calculated.

SMILES	EC50 [1] [nM]	EC50 [2] [nM]
COc1cc(CN2C[C@@H]3C[C@H]2CO3)ccc1Cn1ncc2nc(N)nc(NCc3cc(C)on3)c21 [Compound 127, 1-[(2-methoxy-4-{[(1S,4S)-2-oxa-5-azabicyclo[2.2.1]heptan-5-yl]methyl}phenyl)methyl]-N7-[(5-methyl-1,2-oxazol-3-yl)methyl]-1H-pyrazolo[4,3-d]pyrimidine-5,7-diamine]	16.7	682
COc1cc(CN2C[C@@H]3C[C@H]2CN3)ccc1Cn1ncc2nc(N)nc(NCC3CC(C4CC4)C3)c21 (stereo partly drawn) [Compound 112, N7-[(3-cyclopropylcyclobutyl)-methyl]-1-[(4-{[(1S,4S)-2,5-diazabicyclo[2.2.1]heptan-2-yl]methyl}-2-methoxy-phenyl)methyl]-1H-pyrazolo[4,3-d]pyrimidine-5,7-diamine]	151	30.5
CCC[C@@H](CCO)Nc1nc(N)nc2cnn(Cc3ccc(C(=O)N4C[C@H]5CNC[C@H]5C4)cc3OC)c12 [Compound 120]	138	173
CCCCNc1nc(N)nc2c(C)nn(Cc3ccc(C(=O)N4C[C@H]5CN(C)C[C@H]5C4)cc3OC)c12 [Compound 115, 1-({4-[(3aR,6aS)-5-methyl-octahydropyrrolo[3,4-c]pyrrole-2-carbonyl]-2-methoxyphenyl}methyl)-N7-butyl-3-methyl-1H-pyrazolo[4,3-d]pyrimidine-5,7-diamine]	10.9	79.8
CCC[C@@H](CCO)Nc1nc(N)nc2cnn(Cc3ncc(CN4C[C@@H]5C[C@H]4CN5CCO)cc3OC)c12 [Compound 135, (3S)-3-({5-amino-1-[(5-{[(1S,4S)-5-(2-hydroxyethyl)-2,5-diaza-bicyclo[2.2.1]heptan-2-yl]methyl}-3-methoxypyridin-2-yl)methyl]-1H-pyrazolo[4,3-d]pyrimidin-7-yl}amino)hexan-1-ol]	12.2	297
COc1cc(CN2C[C@@H]3C[C@H]2CN3)ccc1Cn1ncc2nc(N)nc(NCc3noc(C)n3)c21 [Compound 129, 1-[(4-{[(1S,4S)-2,5-diaza-bicyclo[2.2.1]heptan-2-yl]methyl}-2-methoxyphenyl)methyl]-N7-[(5-methyl-1,2,4-oxadiazol-3-yl)methyl]-1H-pyrazolo[4,3-d]pyri-midine-5,7-diamine]	804	323
COc1cc(CN2C[C@@H]3C[C@H]2CN3C)ccc1Cn1ncc2nc(N)nc(NCc3noc(C)n3)c21 [Compound 130, 1-[(2-methoxy-4-{[(1S,4S)-5-methyl-2,5-diazabicyclo[2.2.1]-heptan-2-yl]methyl}phenyl)methyl]-N7-[(5-methyl-1,2,4-oxa-diazol-3-yl)methyl]-1H-pyrazolo[4,3-d]pyrimidine-5,7-diamine]	74.3	135
CCCCNc1nc(N)nc2cnn(Cc3ccc(CN4C[C@H]5CN(C)C[C@H]5C4)cc3OC(F)F)c12 [Compound 117, 1-[(4-{[(3aR,6aS)-5-methyl-octa-hdropyrrolo[3,4-c]pyrrol-2-yl]methyl}-2-(difluoromethoxy)phenyl)-methyl]-N7-butyl-1H-pyrazolo[4,3-d]pyrimidine-5,7-diamine]	16.2	92.4
CCCCNc1nc(N)nc2cnn(Cc3ccc(C(=O)N4C[C@H]5CN(C)C[C@H]5C4)cc3OC(F)F)c12 [Compound 116, 1-({4-[(3aR,6aS)-5-methyl-octa-hydropyrrolo[3,4-c]pyrrole-2-carbonyl]-2-(difluoromethoxy)phenyl}-methyl)-N7-butyl-1H-pyrazolo[4,3-d]pyrimidine-5,7-diamine]	14.2	172

The remaining compounds from weak to strong by EC50 [1], led by results:

EC50 [1] [nM]	EC50 [2] [nM]	SMILES
10.6	59.9	CCC[C@@H](CCO)Nc1nc(N)nc2c(C)nn(Cc3ccc(CN4C[C@H]5C[C@@H]4CN5CCO)cc3OC)c12 [Compound 141, (3S)-3-({5-amino-1-[(4-{[(1R,4R)-5-(2-hydroxyethyl)-2,5-diazabicyclo [2.2.1]heptan-2-yl]methyl}-2-methoxyphenyl)methyl]-3-methyl-1H-pyrazolo[4,3-d]pyrimidin-7-yl}amino)hexan-1-ol]
4.2	20.7	CCCCNc1nc(N)nc2cnn(Cc3ccc(CN4C[C@H]5C[C@@H]4CN5C)cc3OC)c12 [Compound 105, N7-butyl-1-[(2-methoxy-4-{[(1R,4R)-5-methyl-2,5-diaza-bicyclo[2.2.1]heptan-2-yl]methyl}-phenyl)methyl]-1H-pyrazolo[4,3-d]pyrimidine-5,7-diamine]
3	278	CCC[C@@H](CCO)Nc1nc(N)nc2cnn(Cc3ncc(CN4C[C@H]5C[C@@H]4CN5CCO)cc3OC)c12 [Compound 138, (3S)-3-({5-amino-1-[(5-{[(1R,4R)-5-(2-hydroxyethyl)-2,5-diaza-bicyclo[2.2.1]heptan-2-yl]methyl}-3-methoxypyridin-2-yl)methyl]-1H-pyrazolo[4,3-d]pyrimidin-7-yl}amino)hexan-1-ol]
0.7	7.2	CCC[C@@H](CCO)Nc1nc(N)nc2cnn(Cc3ccc(CN4C[C@H]5CN(C)C[C@H]5C4)cc3OC)c12 [Compound 122, (3S)-3-({1-[(4-{[(3aR,6aS)-5-methyl-octahydropyrrolo[3,4-c]pyrrol-2-yl]methyl}-2-methoxyphenyl)methyl]-5-amino-1H-pyrazolo[4,3-d]pyrimidin-7-yl}amino)hexan-1-ol]
